Source: paper doi:10.1101/2020.10.13.20211417v1 (medRxiv, 2020)

Legend:
[1] = test system: patients with acute primary supratentorial ICH; test: Hematoma volume from CT images; type: in vivo, human
[2] = test system: patients with acute primary supratentorial ICH; test: Adverse events and safety endpoints, CATCH trial; type: in vivo, human
[3] = Related, Treatment Emergent Non-Serious AEs
[4] = Treatment Emergent Non-Serious AEs
[5] = non-serious TEAE events, Total, Total severity

Ac-VSRRR-NH2 [CN-105]
Mean (SD) hematoma volume by CT ([1]; Day 1 after ICH): 25.1 (25.1) cm^3 | Mean (SD) hematoma volume by CT ([1]; Day 2 after ICH): 21.9 (24.9) cm^3 | Mean (SD) hematoma volume by CT ([1]; Day 5 after ICH): 19.7 (19.6) cm^3 | hematoma volumes versus 1:1 matched ERICH participants ([1]; Days 0, 1, 2, 5, box plots, descriptive): No difference | participants with incidence of hemorrhage extension ([1]; Nine of 38, one with clinical deterioration): 24% | Mean (SD) hematoma volume by CT ([1]; on admission): 22.8 (23.7) cm^3 | participants experiencing treatment emergent SAEs ([2]; 9 of 38 participants): 24% | participants experiencing nonfatal SAEs ([2]; 12 of 38 participants): 32% | central nervous system (CNS) infection ([2]; 38 participants): No participants | changes in electrocardiogram parameters ([2]; 38 participants): No participant experienced changes | treatment emergent AE constipation, participants ([2]; 38 participants): 26% | treatment emergent AE hypomagnesemia, participants ([2]; 38 participants): 18% | treatment emergent AE hyponatremia, participants ([2]; 38 participants): 18% | treatment emergent AE hypophosphatemia, participants ([2]; 38 participants): 21% | treatment emergent AE leukocytosis, participants ([2]; 38 participants): 24% | treatment emergent AE nausea, participants ([2]; 38 participants): 18% | treatment emergent AE pain, participants ([2]; 38 participants): 29% | treatment emergent AE pyrexia, participants ([2]; 38 participants): 16% | # of Events ([2]; All Non-Serious AEs): 237 | # of Events, Mild ([2]; All Non-Serious AEs): 183 | # of Events, Moderate ([2]; All Non-Serious AEs): 51 | # of Events, Severe ([2]; All Non-Serious AEs): 3 | # of Subjects ([2]; All Non-Serious AEs): 31 | # of Subjects, Mild ([2]; All Non-Serious AEs): 30 | # of Subjects, Moderate ([2]; All Non-Serious AEs): 19 | # of Subjects, Severe ([2]; All Non-Serious AEs): 2 | participants with in-hospital neurological deterioration ([2]; Five of 38, increase of NIHSS>2 from baseline persisting more than 24 hours): 13% | # of Events [2, 3]: 86 | # of Events, Mild [2, 3]: 73 | # of Events, Moderate [2, 3]: 13 | # of Events, Severe [2, 3]: 0 | # of Subjects [2, 3]: 16 | # of Subjects, Mild [2, 3]: 16 | # of Subjects, Moderate [2, 3]: 5 | # of Subjects, Severe [2, 3]: 0 | participants who died prior to 30-day follow up ([2]; Three of 38, in-hospital, related to primary disease): 8% | # of Events [2, 4]: 230 | # of Events, Mild [2, 4]: 177 | # of Events, Moderate [2, 4]: 50 | # of Events, Severe [2, 4]: 3 | # of Subjects [2, 4]: 30 | # of Subjects, Mild [2, 4]: 29 | # of Subjects, Moderate [2, 4]: 19 | # of Subjects, Severe [2, 4]: 2 | participants receiving treatment for elevated intracranial pressure ([2]; Two of 38, both died in-hospital of brain herniation from index ICH): 5% | SAE Drug administration error (Medication administration error), Relatedness ([2]; all SAEs, subject 101-003, Moderate, day 2-2, Recovered / Resolved): Unrelated | SAE Pneumonia (Left upper lobe pneumonia), Relatedness ([2]; all SAEs, subject 101-004, Moderate, day 1-8, Recovered / Resolved): Related | SAE Failure to thrive, Relatedness ([2]; all SAEs, subject 101-004, Moderate, day 23-57, Recovered / Resolved): Unrelated | SAE Cerebral haemorrhage (Left Frontal IPH), Relatedness ([2]; all SAEs, subject 101-004, Severe, day 58-62, Recovered / Resolved): Related | SAE Brain herniation (Cerebral herniation), Relatedness ([2]; all SAEs, subject 101-007, Severe, day 0-5, Fatal): Unrelated | SAE Respiratory failure (Hypoxic Respiratory Failure), Relatedness ([2]; all SAEs, subject 101-008, Moderate, day 2-4, Recovered / Resolved): Related | SAE Urinary tract infection, Relatedness ([2]; all SAEs, subject 101-013, Moderate, day 39-44, Recovered / Resolved): Unrelated | SAE Pulmonary embolism, Relatedness ([2]; all SAEs, subject 101-015, Severe, day 22-32, Recovered / Resolved): Unrelated | SAE Cerebral haemorrhage (Worsening of Intracerebral Hemorrhage), Relatedness ([2]; all SAEs, subject 101-018, Severe, day 0-6, Fatal): Unrelated | SAE Dural arteriovenous fistula, Relatedness ([2]; all SAEs, subject 102-002, Moderate, day 1-1, Recovered / Resolved): Unrelated | SAE Deep vein thrombosis (Left Popliteal Vein), Relatedness ([2]; all SAEs, subject 102-010, Severe, day 75-83, Recovered / Resolved): Unrelated | SAE Respiratory distress, Relatedness ([2]; all SAEs, subject 103-001, Moderate, day 1-35, Recovered / Resolved): Unrelated | SAE Brain herniation, Relatedness ([2]; all SAEs, subject 104-001, Severe, day 0-4, Fatal): Unrelated | SAE Partial seizures (Focal Seizure), Relatedness ([2]; all SAEs, subject 106-002, Severe, day 8-18, Recovered / Resolved): Unrelated | treatment emergent SAEs, number of events ([2]; deemed unlikely related to study drug): Eleven | Grand Total ([2]; non-serious TEAE events, Total severity): 230 (100) N (%) | Acute kidney injury [2, 5]: 4 (1.7) N (%) | Agitation [2, 5]: 5 (2.2) N (%) | Alcohol withdrawal syndrome [2, 5]: 1 (0.4) N (%) | Anemia [2, 5]: 5 (2.2) N (%) | Anxiety [2, 5]: 1 (0.4) N (%) | Atelectasis [2, 5]: 1 (0.4) N (%) | Atrial fibrillation [2, 5]: 1 (0.4) N (%) | Azotemia [2, 5]: 1 (0.4) N (%) | Bacteremia [2, 5]: 1 (0.4) N (%) | Benign prostatic hyperplasia [2, 5]: 1 (0.4) N (%) | Bladder catheterization [2, 5]: 1 (0.4) N (%) | Blood phosphorus decreased [2, 5]: 1 (0.4) N (%) | Bradycardia [2, 5]: 2 (0.9) N (%) | Brain edema [2, 5]: 2 (0.9) N (%) | Candida infection [2, 5]: 1 (0.4) N (%) | Chest pain [2, 5]: 2 (0.9) N (%) | Cognitive disorder [2, 5]: 1 (0.4) N (%) | Confusional state [2, 5]: 1 (0.4) N (%) | Constipation [2, 5]: 11 (4.8) N (%) | Cough [2, 5]: 1 (0.4) N (%) | Decubitus ulcer [2, 5]: 1 (0.4) N (%)
